Where two headings read alike, the source gives them in different places.
Tests used:
[1] = target: T1, human D2R/β-arrestin (Homo sapiens (Human), UniProt P14416); details: read-out: cAMP Antagonist
Protocol: The detection reagents are then added, and the read-out is detected.
Cells were prepared for assays by growing cultures for up to 2 weeks (from about 6-20 passages). A vial of frozen cells was thawed in a water bath held at 37° C. The cells were then transferred into a 50 ml tube with 10 ml growth media. The vial was rinsed with growth media and the contents transferred to the 50 ml tube. The 50 ml tube was centrifuged at 1200 rpm for 5 minutes at room temperature. […] When the cells reached about 90% confluence (approximately 3 days between passages), the cells were passaged and used for either the agonist or antagonist assays as described below.
The cells were prepared for Gi/cAMP assays as described above. The assays were performed using a PE Lance Ultra cAMP kit (TRF0263). The cells were grown on 225 mm dishes, then washed once with 1×PBS (Cellgro) before digestion with 2.5 ml 1× Detachment reagent (DRX 92-0009) for about 2 minutes. PBS (20 ml) was then added to the plate, and the cells were transferred to a 50 ml centrifuge tube, and centrifuged at room temperature using BD Dynac III, at 1200 rpm for 5 minutes. […] The plates were then incubated at room temperature for about 30 minutes before addition of Eu-cAMP tracer solution (100, PerkinElmer) and then ULight-anti-cAMP solution (100) to each well.

[2] = target: T1, human D2R/β-arrestin; experiment: Gi/cAMP agonist assay (Lance Ultra cAMP, Forskolin); format: cell-based; details: CHO-K1 cell line expressing human D2R/β-arrestin
Procedure, shortened: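 Cells were plated and incubated before compounds were pin-transferred and incubated for 10 min at 37 °C. Forskolin was then added to stimulate cAMP. cAMP was detected by Lance Ultra TR-FRET using Eu-cAMP tracer and ULight-anti-cAMP antibody.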

[3] = target: T1, human D2R/β-arrestin; experiment: β-Arrestin agonist assay (PathHunter); format: cell-based; details: CHO-K1 cell line expressing human D2R/β-arrestin
Procedure, shortened: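 After compound incubation, detection reagent (Buffer:Emerald II:Galactor-Star, 19:5:1) added and luminescence or fluorescence read.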

[4] = target: T1, human D2R/β-arrestin; details: read-out: β-arrestin Antagonist
[5] = CHO-K1 cell line expressing human D2R/β-arrestin, quinpirole used as agonist

T1 sequence (P14416 whole entry): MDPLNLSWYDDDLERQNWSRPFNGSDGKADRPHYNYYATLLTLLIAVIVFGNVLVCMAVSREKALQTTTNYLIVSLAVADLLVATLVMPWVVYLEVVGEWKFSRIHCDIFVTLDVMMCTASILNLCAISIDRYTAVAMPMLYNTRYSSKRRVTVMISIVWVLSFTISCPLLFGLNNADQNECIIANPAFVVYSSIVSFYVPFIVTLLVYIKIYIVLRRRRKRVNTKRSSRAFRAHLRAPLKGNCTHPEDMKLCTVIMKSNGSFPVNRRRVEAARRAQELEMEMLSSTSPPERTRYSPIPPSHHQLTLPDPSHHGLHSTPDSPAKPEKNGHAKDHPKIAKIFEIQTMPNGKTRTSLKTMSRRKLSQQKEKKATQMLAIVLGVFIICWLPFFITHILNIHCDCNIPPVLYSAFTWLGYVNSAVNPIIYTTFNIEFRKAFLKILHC

IC50 [1, 5] [nM] | IC50 [4, 5] [nM] | SMILES | IC50 [1] [nM] | EC50 [2] [nM] | EC50 [3] [nM] | IC50 [4] [nM]
 |  | O=C(NC(c1ccc(F)cc1)c1ccccn1)C1CCN(CCOc2ccccc2C(F)(F)F)CC1 (single isomer, unassigned) [Compound 52a] | < 100 | > 30000 | > 30000 | 100 to 1000
 |  | O=C(NC(c1ccc(F)cc1)c1ccccn1)C1CCN(CCOc2ccccc2C(F)(F)F)CC1 (single isomer, unassigned) [Compound 52b] | 100 to 1000 | > 30000 | > 30000 | 100 to 1000
 |  | O=C(NC(c1ccc(F)cc1)c1ccccn1)C1CCN(CCOc2ccccc2Cl)CC1 (single isomer, unassigned) [Compound 53a, 1-(2-(2-chlorophenoxy)ethyl)-N-((4-fluorophenyl)(pyridin-2-yl)methyl) piperidine-4-carboxamide] | 100 to 1000 | > 30000 | > 30000 | 100 to 1000
 |  | O=C(NC(c1ccc(F)cc1)c1ccccn1)C1CCN(CCOc2ccccc2Cl)CC1 (single isomer, unassigned) [Compound 53b, 1-(2-(2-chlorophenoxy)ethyl)-N-((4-fluorophenyl)(pyridin-2-yl)methyl) piperidine-4-carboxamide] | 100 to 1000 | > 30000 | > 30000 | 100 to 1000
 |  | O=C(NC(c1ccc(F)cc1)c1ccccn1)C1CCN(CCOc2ccccc2F)CC1 (single isomer, unassigned) [Compound 54a, 1-(2-(2-fluorophenoxy)ethyl)-N-((4-fluorophenyl)(pyridin-2-yl)methyl) piperidine-4-carboxamide] | < 100 | > 30000 | > 30000 | < 100
 |  | O=C(NC(c1ccc(F)cc1)c1ccccn1)C1CCN(CCOc2ccccc2F)CC1 (single isomer, unassigned) [Compound 54b, 1-(2-(2-fluorophenoxy)ethyl)-N-((4-fluorophenyl)(pyridin-2-yl)methyl) piperidine-4-carboxamide] | > 30000 | 100 to 1000 | > 30000 | 1000 to 10000
 |  | CC1(C(=O)NC(c2ccc(F)cc2)c2ccccn2)CCN(CCOc2ccccc2C(F)(F)F)CC1 (single isomer, unassigned) [Compound 70a, N-((4-fluorophenyl)(pyridin-2-yl)methyl)-4-methyl-1-(2-(2-(trifluoromethyl)phenoxy)ethyl) piperidine-4-carboxamide] | < 100 | > 30000 | > 30000 | < 100
1000 to 10000 | 1000 to 10000 | Fc1ccc(C(NCC2CCN(CCOc3ccccc3)CC2)c2ccccn2)cc1 (single isomer, unassigned) [Compound 78b, 1-(4-fluorophenyl)-N-((1-(2-phenoxyethyl)piperidin-4-yl)methyl)-1-(pyridin-2-yl)methanamine] |  | > 30000 | > 30000 | 
 |  | O=C(NC(c1ccc2c(c1)OCO2)c1ccccn1)C1CCN(CCOc2ccccc2F)CC1 (single isomer, unassigned) [Compound 95a, N-(benzo[d][1,3]dioxol-5-yl(pyridin-2-yl)methyl)-1-(2-(2-fluorophenoxy)ethyl) piperidine-4-carboxamide] | 100 to 1000 | > 30000 | > 30000 | 100 to 1000
 |  | O=C(NC(c1ccc(Cl)cc1)c1ccccc1F)C1CCN(CCOc2ccccc2F)CC1 (single isomer, unassigned) [Compound 96a, N-((4-chlorophenyl)(2-fluorophenyl)methyl)-1-(2-(2-fluorophenoxy)ethyl) piperidine-4-carboxamide] | > 30000 | 1000 to 10000 | > 30000 | 1000 to 10000
 |  | O=C(NC(c1ccc(Cl)cc1)c1ccccc1F)C1CCN(CCOc2ccccc2F)CC1 (single isomer, unassigned) [Compound 96b, N-((4-chlorophenyl)(2-fluorophenyl)methyl)-1-(2-(2-fluorophenoxy)ethyl) piperidine-4-carboxamide] | 100 to 1000 | > 30000 | > 30000 | 100 to 1000

Reference: patent US10752588B2 (The Broad Institute, Inc., priority 2014, dated 2020)
